Patent US9708639B2, “Method for quantifying amino acids with pyrophosphate” (TOYAMA PREFECTURE, priority 2012, dated 2017)

What was measured:
Assay in all cases: Qualitative test of AARS substrate specificity (molybdenum blue method)
Assay type in all cases: biochemical, Thermotoga maritima MSB8 strain
Design in all cases: key: +: Activity was detected; −: Activity was not detected
Thermotoga-derived CysRS = biological target: T1, Thermotoga-derived CysRS (Thermotoga maritima, UniProt Q9WZH8); conditions: Tyr 1 mM, other amino acids 5 mM; hydroxylamine 1000 mM; CysRS 0.3 mg/ml (8 mU/ml); 30° C.
T1 construct: The amplification products were each inserted into pET-28a to obtain plasmids for expression of respective AARSs; His tag (C); made in house; host or cells: Escherichia coli BL21 (DE3)
T1 sequence (Q9WZH8 1-460): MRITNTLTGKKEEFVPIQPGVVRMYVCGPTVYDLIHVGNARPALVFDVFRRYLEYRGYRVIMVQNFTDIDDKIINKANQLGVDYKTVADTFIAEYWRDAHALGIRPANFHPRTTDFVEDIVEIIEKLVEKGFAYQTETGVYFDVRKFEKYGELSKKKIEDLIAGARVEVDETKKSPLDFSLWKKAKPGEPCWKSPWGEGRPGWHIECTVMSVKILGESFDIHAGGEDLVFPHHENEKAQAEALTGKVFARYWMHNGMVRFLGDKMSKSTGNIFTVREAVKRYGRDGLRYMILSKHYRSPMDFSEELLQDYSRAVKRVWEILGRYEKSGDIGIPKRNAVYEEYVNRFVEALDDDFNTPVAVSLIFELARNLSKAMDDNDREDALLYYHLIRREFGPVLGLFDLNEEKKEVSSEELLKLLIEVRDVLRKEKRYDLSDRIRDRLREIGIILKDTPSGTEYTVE
Method: (§1) A test sample containing an amino acid as the measurement subject and a reaction mixture for quantifying amino acid having the following composition were mixed. The mixture was left standing at 30° C. to allow the AARS reaction to advance. The mixture in a volume of 33 μl, 66 μl of water, and 1 μl of a 300 U/ml yeast pyrophosphatase solution were mixed, and left standing at room temperature for 20 minutes to allow the pyrophosphatase reaction to advance. Then, the reaction mixture was mixed with 100 μl of a color development solution A and 30 μl of a color developing solution B having the following compositions, then the mixture was left standing at room temperature for 5 minutes, and the absorbance was measured at 700 nm or 900 nm with a microplate reader.
(§2) Reaction mixture for quantifying amino acid: 20 mM Tris-HCl (pH 7.0), 5 mM MgCl2, 2 mM ATP, and AARS (concentrations are final concentrations obtained after mixing with test sample)
(§3) Color developing solution A: A solution obtained by mixing water and concentrated sulfuric acid at a ratio of 3:1 and dissolving (NH4)6Mo7O24.4H2O in the mixture at a concentration of 0.066 g/ml
(§4) Color developing solution B: A solution obtained by mixing water and concentrated sulfuric acid at a ratio of 10000:7 and dissolving FeSO4.7H2O in the mixture at a concentration of 145 mg/ml
(§5) Presence or absence of pyrophosphate generation was verified for the Thermotoga-derived CysRS, HisRS, LysRS, ProRS, SerRS, TrpRS, and TyrRS by using the AARS activity measurement method described in 9. and standard solutions of the various amino acids as test samples. AARSs were added to the reaction mixture at final concentrations of 0.3 (8 mU/ml), 0.1, 0.2 (3 mU/ml), 0.2, 0.1 (1 mU/ml), 0.1, 0.2 (20 mU/ml) mg/ml, respectively. The reaction mixtures were prepared so that the final concentration of Tyr was 1 mM, and the final concentrations of the other amino acids were 5 mM. As for the hydroxylamine concentration, it was added at a final concentration of 1000 mM for all the cases. Further, presence or absence of pyrophosphate production was also verified for the Thermus-derived MetRS and TyrRS by using the AARS activity measurement method described in 10. and standard solutions of the various amino acids as test samples. The reaction mixtures were prepared so that the final concentrations of the amino acids were 200 μM. Hydroxylamine was added at a final concentration of 400 mM.
(§6) Detection or no detection of the activity in the reaction mixtures containing a combination of each AARS and amino acid are shown in Table 2. The symbol + indicates detection of the activity, and − indicates no detection of the activity.

Thermotoga-derived TrpRS = biological target: T2, Thermotoga-derived TrpRS (Thermotoga maritima, UniProt Q9WYW2); conditions: Tyr 1 mM, other amino acids 5 mM; hydroxylamine 1000 mM; TrpRS 0.1 mg/ml; 30° C.
T2 construct: His tag (C); made in house; host or cells: Escherichia coli BL21 (DE3)
T2 sequence (Q9WYW2 1-328): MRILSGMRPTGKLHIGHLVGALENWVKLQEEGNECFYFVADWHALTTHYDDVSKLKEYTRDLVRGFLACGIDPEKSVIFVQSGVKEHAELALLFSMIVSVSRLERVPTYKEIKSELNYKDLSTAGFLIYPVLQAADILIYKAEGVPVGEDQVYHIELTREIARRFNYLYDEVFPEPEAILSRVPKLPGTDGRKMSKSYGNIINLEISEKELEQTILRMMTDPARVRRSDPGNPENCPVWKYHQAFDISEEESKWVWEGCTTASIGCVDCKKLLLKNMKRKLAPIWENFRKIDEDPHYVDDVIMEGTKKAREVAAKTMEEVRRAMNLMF
Method: as §1, §2, §3, §4, §5, §6

Thermotoga-derived TyrRS = biological target: T3, Thermotoga-derived TyrRS (Thermotoga maritima, UniProt Q9WYU8); conditions: Tyr 1 mM, other amino acids 5 mM; hydroxylamine 1000 mM; TyrRS 0.2 mg/ml (20 mU/ml); 30° C.
T3 construct: The amplification products were each inserted into pET-28a to obtain plasmids for expression of respective AARSs; His tag (N); made in house; host or cells: Escherichia coli BL21 (DE3)
T3 sequence (Q9WYU8 1-401): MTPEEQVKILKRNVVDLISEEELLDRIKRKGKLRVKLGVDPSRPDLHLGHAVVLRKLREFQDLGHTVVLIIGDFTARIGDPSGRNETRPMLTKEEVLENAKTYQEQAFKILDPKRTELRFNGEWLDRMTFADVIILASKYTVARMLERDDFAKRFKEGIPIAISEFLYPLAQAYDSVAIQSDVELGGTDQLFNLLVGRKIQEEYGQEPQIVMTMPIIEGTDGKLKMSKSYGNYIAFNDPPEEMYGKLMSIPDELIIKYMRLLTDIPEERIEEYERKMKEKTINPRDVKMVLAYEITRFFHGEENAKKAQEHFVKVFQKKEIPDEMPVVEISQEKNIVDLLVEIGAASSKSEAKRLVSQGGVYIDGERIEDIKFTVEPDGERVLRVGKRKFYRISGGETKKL
Method: as §1, §2, §3, §4, §5, §6

Thermotoga-derived SerRS = biological target: T4, Thermotoga-derived SerRS (Thermotoga maritima, UniProt Q9X199); conditions: Tyr 1 mM, other amino acids 5 mM; hydroxylamine 1000 mM; SerRS 0.1 mg/ml (1 mU/ml); 30° C.
T4 construct: His tag (C); made in house; host or cells: Escherichia coli BL21 (DE3)
T4 sequence (Q9X199 whole entry): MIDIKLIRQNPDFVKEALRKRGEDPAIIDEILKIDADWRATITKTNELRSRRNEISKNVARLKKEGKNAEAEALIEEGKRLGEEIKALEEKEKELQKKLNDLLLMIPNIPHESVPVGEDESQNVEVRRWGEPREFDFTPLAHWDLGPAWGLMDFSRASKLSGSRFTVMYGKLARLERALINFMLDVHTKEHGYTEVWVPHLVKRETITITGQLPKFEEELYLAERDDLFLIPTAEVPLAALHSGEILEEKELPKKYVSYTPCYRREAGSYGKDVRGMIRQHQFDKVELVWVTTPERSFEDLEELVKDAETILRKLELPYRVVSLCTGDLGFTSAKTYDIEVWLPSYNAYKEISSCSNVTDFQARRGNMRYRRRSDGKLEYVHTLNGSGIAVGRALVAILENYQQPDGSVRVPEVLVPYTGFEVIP
Method: as §1, §2, §3, §4, §5, §6

Structure (SMILES)	Detection of the activity (pyrophosphate generation), CysRS (Thermotoga-derived CysRS)	Detection of the activity (pyrophosphate generation), TrpRS (Thermotoga-derived TrpRS)	Detection of the activity (pyrophosphate generation), TyrRS (Thermotoga) (Thermotoga-derived TyrRS)	Detection of the activity (pyrophosphate generation), SerRS (Thermotoga-derived SerRS)
N[C@@H](CO)C(=O)O [Ser, L-serine]	−	−	−	+
CC(C)[C@H](N)C(=O)O [Val, L-valine]	−	−	−	−
N[C@@H](CS)C(=O)O [Cys, L-cysteine]	+	−	−	−
C[C@@H](O)[C@H](N)C(=O)O [Thr, L-threonine]	−	−	−	−
N=C(N)NCCC[C@H](N)C(=O)O [Arg, L-arginine]	−	−	−	−
CC[C@H](C)[C@H](N)C(=O)O [Ile, L-isoleucine]	−	−	−	−
N[C@@H](Cc1ccccc1)C(=O)O [Phe, L-phenylalanine]	−	−	−	−
N[C@@H](CC(=O)O)C(=O)O [Asp, L-aspartic acid]	−	−	−	−
NC(=O)CC[C@H](N)C(=O)O [Gln, L-glutamine]	−	−	−	−
N[C@@H](CCC(=O)O)C(=O)O [Glu, L-glutamic acid]	−	−	−	−
NCC(=O)O [Gly, glycine]	−	−	−	−
CSCC[C@H](N)C(=O)O [Met, L-methionine]	−	−	−	−
NCCCC[C@H](N)C(=O)O [Lys, L-lysine]	−	−	−	−
N[C@@H](Cc1c[nH]c2ccccc12)C(=O)O [Trp, L-tryptophan]	−	+	−	−
NC(=O)C[C@H](N)C(=O)O [Asn, L-asparagine]	−	−	−	−
C[C@H](N)C(=O)O [Ala, L-alanine]	−	−	−	−
N[C@@H](Cc1ccc(O)cc1)C(=O)O [Tyr, L-tyrosine]	−	−	+	−
O=C(O)[C@@H]1CCCN1 [Pro, L-proline]	−	−	−	−
N[C@@H](Cc1c[nH]cn1)C(=O)O [His, L-histidine]	−	−	−	−
CC(C)C[C@H](N)C(=O)O [Leu, L-leucine]	−	−	−	−
